Active and inactive are the calls of the source.
How the values were obtained:
[1] = biological target: Sphingosine 1-phosphate receptor 2 (Homo sapiens, UniProt O95136); assay: Late-stage fluorescence-based dose-response cell-based counterscreen assay to identify agonists of the Sphingosine 1-Phosphate Receptor 3 (S1P3): Sphingosine 1-Phosphate Receptor 2 (S1P2) agonist assay.; format: functional
[2] = biological target: T1, Sphingosine 1-phosphate receptor 4 (Homo sapiens, UniProt O95977); assay: Late-stage fluorescence-based dose-response cell-based counterscreen assay to identify agonists of the Sphingosine 1-Phosphate Receptor 3 (S1P3): Sphingosine 1-Phosphate Receptor 4 (S1P4) agonist assay.; format: functional
T1 sequence (O95977 whole entry): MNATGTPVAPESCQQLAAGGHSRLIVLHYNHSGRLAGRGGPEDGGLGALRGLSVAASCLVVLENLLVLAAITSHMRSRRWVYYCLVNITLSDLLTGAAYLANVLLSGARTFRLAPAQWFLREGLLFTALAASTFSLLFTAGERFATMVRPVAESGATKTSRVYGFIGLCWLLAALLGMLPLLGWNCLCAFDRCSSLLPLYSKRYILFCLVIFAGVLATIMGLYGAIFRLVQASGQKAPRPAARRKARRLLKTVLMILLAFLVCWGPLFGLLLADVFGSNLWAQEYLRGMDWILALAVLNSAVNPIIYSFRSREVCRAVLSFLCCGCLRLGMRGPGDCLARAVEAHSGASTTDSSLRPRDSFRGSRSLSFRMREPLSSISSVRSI

[3] = biological target: T2, Insulin-degrading enzyme (Homo sapiens, UniProt P14735); assay: recombinant IDE activation, cell-free – biochemical, fluorescence polarization, counter-screen for IDE activator project, dose response (AID 588681)
[4] = biological target: T2, Insulin-degrading enzyme; assay: cellular IDE activation of Abeta substrate cleavage – fluorescence polarization, HEK cells, dose response (AID 588439); format: functional, cell-based
[5] = system: HEK293; assay: membrane integrity loss in HEK cells – cell-based, fluorescence, cytotoxicity control for IDE activator project, dose response (AID 588440); format: functional; details: Homo sapiens;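 note: cytotoxicity by LDH release measuring loss of membrane integrity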
[6] = system: HEK293; assay: optical interference in Abeta FP readout, dose response, artefact control for IDE activator project, biochemical, fluorescence polarization (AID 588442); format: functional, cell-based; details: Homo sapiens

T2 sequence (P14735 whole entry): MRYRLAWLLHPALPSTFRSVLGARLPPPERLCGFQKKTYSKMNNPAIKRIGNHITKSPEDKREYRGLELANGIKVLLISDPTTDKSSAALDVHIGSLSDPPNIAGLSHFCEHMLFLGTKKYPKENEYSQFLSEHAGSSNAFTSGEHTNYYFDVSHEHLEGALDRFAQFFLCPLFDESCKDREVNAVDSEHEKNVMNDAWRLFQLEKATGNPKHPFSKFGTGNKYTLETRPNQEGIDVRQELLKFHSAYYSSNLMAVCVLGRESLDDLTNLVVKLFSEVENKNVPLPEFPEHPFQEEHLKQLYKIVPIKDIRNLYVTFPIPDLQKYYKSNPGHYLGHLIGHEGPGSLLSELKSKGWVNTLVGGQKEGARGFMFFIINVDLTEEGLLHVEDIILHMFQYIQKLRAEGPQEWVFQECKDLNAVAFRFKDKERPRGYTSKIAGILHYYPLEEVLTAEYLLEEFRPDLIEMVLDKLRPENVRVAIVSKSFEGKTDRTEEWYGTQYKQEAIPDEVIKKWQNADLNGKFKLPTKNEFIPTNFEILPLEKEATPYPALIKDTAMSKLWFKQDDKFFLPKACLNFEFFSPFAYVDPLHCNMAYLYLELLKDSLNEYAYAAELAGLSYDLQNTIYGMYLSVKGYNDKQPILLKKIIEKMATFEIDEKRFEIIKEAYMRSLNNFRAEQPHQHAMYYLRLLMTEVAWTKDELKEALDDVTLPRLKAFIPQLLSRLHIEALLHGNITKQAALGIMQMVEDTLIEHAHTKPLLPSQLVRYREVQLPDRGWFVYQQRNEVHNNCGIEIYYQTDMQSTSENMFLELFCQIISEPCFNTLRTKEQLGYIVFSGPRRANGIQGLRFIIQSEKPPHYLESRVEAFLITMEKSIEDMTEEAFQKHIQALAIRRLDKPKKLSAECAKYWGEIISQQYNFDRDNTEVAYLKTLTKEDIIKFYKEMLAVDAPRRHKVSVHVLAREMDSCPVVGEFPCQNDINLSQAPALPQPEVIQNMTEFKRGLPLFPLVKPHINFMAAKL
Chain of Sphingosine 1-phosphate receptor 2 (O95136 whole entry): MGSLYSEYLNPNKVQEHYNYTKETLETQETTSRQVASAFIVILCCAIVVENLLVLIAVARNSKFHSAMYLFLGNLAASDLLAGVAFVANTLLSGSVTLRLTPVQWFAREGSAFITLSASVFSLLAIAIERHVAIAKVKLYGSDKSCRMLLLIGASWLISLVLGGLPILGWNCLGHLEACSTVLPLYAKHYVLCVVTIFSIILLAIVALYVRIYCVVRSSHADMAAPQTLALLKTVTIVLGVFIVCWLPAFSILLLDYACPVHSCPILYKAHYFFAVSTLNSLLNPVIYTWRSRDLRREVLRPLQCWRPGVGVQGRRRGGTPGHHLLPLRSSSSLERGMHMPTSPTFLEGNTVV

Cc1cc(C(=O)N(C2CCCCC2)C2CCCCC2)no1
inactive: EC50 [1] > 50 µM | EC50 [2] > 50 µM

CC(C)CCn1nnnc1CN1CCN(c2ccccc2)CC1
inactive: EC50 [3] 29.8 µM | EC50 [4] 32.3 µM | IC50 [5] > 89.1 µM | EC50 [6] > 55.9 µM

Source: ChEMBL document CHEMBL1201862, “PubChem BioAssay data set” (2004)
